Measurements: article PMC5691699, “Processing ‘Ataulfo’ Mango into Juice Preserves the Bioavailability and Antioxidant Capacity of Its Phenolic Compounds” (Nutrients, 2017)
Where two headings read alike, the source gives them in different places.

How the values were obtained:
clinical = settings: for AUC/Dose: dose-adjusted AUC 0 to 6 h, n = 12
From the text: Phenolics in plasma were quantified according to the method of Chen, Milbury, Lapsley, and Blumberg. […] Subsequently, phenolics were extracted with acetonitrile. After centrifugation, the supernatant was removed, dried with nitrogen gas, and reconstituted in the aqueous HPLC mobile phase, filtered using Ultrafree Durapore Centrifugal filter devices (0.22, Merck Millipore, Billerica, MA, USA), and injected into the HPLC- ECD system, using previously optimized chromatographic conditions. The mobile phases were 75 mM citric acid and 25 mM ammonium acetate in 90% water/10% acetonitrile (A), and 75 mM citric acid and 25 mM ammonium acetate in 50% water/50% acetonitrile (B).
Results are expressed as mean ± standard deviation (SD). The maximum concentration (Cmax) in plasma and the time to reach Cmax (Tmax) were visually identified. The area under the concentration-time curve (AUC) of plasma phenolics was calculated using the linear trapezoidal integration equation [24]. The differences in Cmax, Tmax, and AUC of phenolics between mango flesh and juice treatments were examined using an analysis of covariance, with time 0 values as the covariant, followed by the Tukey-Kramer multi-comparison test. The Number Cruncher Statistical System version 6.0 software (NCSS, NCSS LLC, Kaysville, UT, USA) was used to perform all statistical analyses.

[1] = Urinary excretion (0–24 h) of phenolic compounds after 'Ataulfo' mango flesh or juice, HPLC-ECD; settings: for detection in urine: after mango flesh and juice consumption, 0–24 h; for urinary excretion, juice group versus flesh group: at 0–4 and 4–8 h, normalized to creatinine
[2] = in vivo
[3] = after mango flesh and juice consumption, 0–6 h
[4] = male, human, plasma, oral, 500 g, AUC, plasma, time 0 to 6 h, after 500 g mango flesh, n = 12, mean ± SD
[5] = male, human, plasma, oral, 500 g, Cmax, plasma, after 500 g mango flesh, healthy men, n = 12, mean ± SD
[6] = male, human, plasma, oral, 500 g, Tmax, plasma, after 500 g mango flesh, healthy men, n = 12, mean ± SD
[7] = male, human, plasma, oral, 721 g, AUC, plasma, time 0 to 6 h, after 721 g mango juice, n = 12, mean ± SD
[8] = male, human, plasma, oral, 721 g, Cmax, plasma, after 721 g mango juice, healthy men, n = 12, mean ± SD
[9] = male, human, plasma, oral, 721 g, Tmax, plasma, after 721 g mango juice, healthy men, n = 12, mean ± SD
[10] = plasma, after 500 g mango flesh
[11] = plasma, after 721 g mango juice
[12] = plasma, after 500 g mango flesh, healthy men, n = 12, mean ± SD
[13] = plasma, after 721 g mango juice, healthy men, n = 12, mean ± SD

With `O=C(/C=C/c1ccc(O)c(O)c1)O[C@@H]1C[C@](O)(C(=O)O)C[C@@H](O)[C@H]1O` [Chlorogenic acid, chlorogenic acid] the detection in plasma (clinical; [3]) was “detected in plasma”, the AUC (clinical; [4]) was 209 ± 24.5 ng·h/mL and the Cmax (clinical; [5]) was 49.7 ± 7.3 ng/mL. The Tmax (clinical; [6]) was 3.5 ± 1.4 h, the AUC (clinical; [7]) was 367 ± 131 ng·h/mL and the Cmax (clinical; [8]) was 109.7 ± 0.26 ng/mL. The Tmax (clinical; [9]) was 2.5 ± 1.8 h, the “higher absorption from mango juice” value (clinical; mango juice compared with flesh) was 62% and the AUC/Dose (clinical; [10]) was 11.5 ± 1.78 (ng h/mL)/mg. The AUC/Dose (clinical; [11]) was 50.12 ± 15.5 (ng h/mL)/mg.

For `COc1cc(/C=C/C(=O)O)ccc1O` [Ferulic acid, ferulic acid], the detection in plasma (clinical; [3]) was “detected in plasma”, the Cmax (clinical; [12]) was 16.5 ± 3.9 ng/mL and the Tmax (clinical; [12]) was 2.8 ± 2.1 h. The Cmax (clinical; [13]) was 32.7 ± 10.9 ng/mL, the Tmax (clinical; [13]) was 2.3 ± 1.5 h and the AUC/Dose (clinical; [10]) was 31.0 ± 9.63 (ng h/mL)/mg. The AUC/Dose (clinical; [11]) was 83.8 ± 30.2 (ng h/mL)/mg, the AUC (clinical; plasma, time 0 to 6 h, after 500 g mango flesh, n = 12, mean ± SD) was 60.2 ± 22.7 ng·h/mL and the AUC (clinical; plasma, time 0 to 6 h, after 721 g mango juice, n = 12, mean ± SD) was 133.4 ± 47.7 ng·h/mL. For the same compound, the detection in urine [1] was “detected in urine” and the “urinary excretion, juice group versus flesh group” value [1] was “significantly higher”.

`O=C(O)c1cc(O)c(O)c(O)c1` [Gallic acid, gallic acid] showed an AUC (clinical; male, human, in vivo) of 38.5 ± 14.5 ng·h/mL, a Cmax (clinical; male, human, in vivo) of 7.9 ± 4.7 ng/mL and an AUC (clinical; male, human, in vivo, AUC) of 36.9 ± 24.3 ng·h/mL. It also gave a Cmax (clinical; male, human, in vivo, Cmax) of 8.7 ± 1.7 ng/mL, a Tmax (clinical; male, human, in vivo, Tmax, plasma, after 500 g mango flesh, healthy men, n = 12, mean ± SD) of 4.4 ± 1.1 h and a Tmax (clinical; male, human, in vivo, Tmax, plasma, after 721 g mango juice, healthy men, n = 12, mean ± SD) of 3.5 ± 1 h.

With `O=C(O)c1cc(O)ccc1O` [Gentisic acid, gentisic acid] the detection in plasma (clinical; [3]) was “detected in plasma”, the AUC (clinical; male, human, in vivo) was 50.9 ± 11.0 ng·h/mL and the Cmax (clinical; male, human, in vivo) was 12.2 ± 0.2 ng/mL. For the same compound, the Tmax (clinical; male, human, in vivo) was 2.8 ± 1.9 h, the AUC (clinical; male, human, in vivo, AUC) was 53.1 ± 8.3 ng·h/mL and the Cmax (clinical; male, human, in vivo, Cmax) was 11.8 ± 2.1 ng/mL. The Tmax (clinical; male, human, in vivo, Tmax) was 4 ± 1.4 h, the AUC/Dose (clinical; [10]) was 221.2 ± 34.0 (ng h/mL)/mg and the AUC/Dose (clinical; [11]) was 282.7 ± 59.1 (ng h/mL)/mg. The detection in urine [1] was “not in urine”.

For `O=C(O)c1ccc(O)c(O)c1` [Protocatechuic acid, protocatechuic acid], the detection in plasma (clinical; [3]) was “detected in plasma”, the AUC (clinical; [4]) was 141 ± 73.9 ng·h/mL and the Cmax (clinical; [5]) was 30.8 ± 13.3 ng/mL. For the same compound, the Tmax (clinical; [6]) was 3.5 ± 2 h, the AUC (clinical; [7]) was 109 ± 5.4 ng·h/mL and the Cmax (clinical; [8]) was 34.5 ± 18 ng/mL. For the same compound, the Tmax (clinical; [9]) was 3.7 ± 1.7 h, the “greater absorption from mango flesh” value (clinical; mango flesh compared with juice) was 49% and the AUC/Dose (clinical; [10]) was 344.8 ± 138.3 (ng h/mL)/mg. The AUC/Dose (clinical; [11]) was 204.90 ± 9.9 (ng h/mL)/mg and the detection in urine [1] was “not in urine”.

In the case of `Oc1cccc(O)c1O` [Pyrogallol, pyrogallol], the detection in urine [1] is reported as “found in urine”.

For `COc1cc(C(=O)O)ccc1O` [Vanillic acid, vanillic acid], the detection in plasma (clinical; [3]) was “not in plasma”, the detection in urine [1] was “detected in urine” and the “urinary AUC/dose excretion” value ([1]; compared with the other urinary phenolics, values higher in the juice group) was “Higher”.

For `O=C(O)/C=C/c1ccc(O)cc1` [p-coumaric acid], the detection in urine [1] was “detected in urine” and the “urinary excretion, juice group versus flesh group” value [1] was “significantly higher”.

In the case of `COc1cc(/C=C/C(=O)O)cc(OC)c1O` [sinapic acid], the “urinary AUC/dose excretion” value ([2]; human) is reported as “Higher”, the detection in urine [2] is reported as “detected in urine” and the detection in plasma (clinical; in vivo) is reported as “not in plasma”.
